Assays:
[1] = Selectivity ratio of Ki for rat D2 dopamine receptor to Ki for human D1 dopamine receptor
D(2) dopamine receptor [2] = molecular target: T1, D(2) dopamine receptor (Rattus norvegicus, UniProt P61169); assay: Displacement of [3H]raclopride from rat D2 dopamine receptor expressed in CHOK1 cells after 90 mins by liquid scintillation counter scintillation counter; assay type: cell-based, CHO-K1
D(2) dopamine receptor [3] = molecular target: T1, D(2) dopamine receptor; assay: Agonist activity at rat D2 dopamine receptor expressed in CHOK1 cells assessed as [35S]GTPgammaS binding after 90 mins by liquid scintillation counter; assay type: functional, cell-based, CHO-K1
D(1A) dopamine receptor = D(1A) dopamine receptor (Homo sapiens, UniProt P21728); assay: Displacement of [3H]SCH23390 from human D1 dopamine receptor expressed in Ltk fibroblast cells after 60 mins by liquid scintillation counter; assay type: cell-based
Chain of D(1A) dopamine receptor (P21728 whole entry): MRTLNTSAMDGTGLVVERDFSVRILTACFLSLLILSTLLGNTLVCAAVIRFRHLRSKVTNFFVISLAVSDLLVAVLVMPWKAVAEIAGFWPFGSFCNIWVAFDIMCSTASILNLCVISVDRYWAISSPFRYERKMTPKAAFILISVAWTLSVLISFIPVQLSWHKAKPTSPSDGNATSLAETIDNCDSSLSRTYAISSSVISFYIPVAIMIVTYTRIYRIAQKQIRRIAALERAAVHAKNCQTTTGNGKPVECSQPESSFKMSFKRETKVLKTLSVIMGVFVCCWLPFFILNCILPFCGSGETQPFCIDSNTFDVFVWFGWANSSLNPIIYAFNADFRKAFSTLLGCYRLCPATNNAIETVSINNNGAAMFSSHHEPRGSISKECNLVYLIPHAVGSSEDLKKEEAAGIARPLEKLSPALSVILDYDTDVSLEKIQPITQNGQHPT

T1 sequence (P61169 whole entry): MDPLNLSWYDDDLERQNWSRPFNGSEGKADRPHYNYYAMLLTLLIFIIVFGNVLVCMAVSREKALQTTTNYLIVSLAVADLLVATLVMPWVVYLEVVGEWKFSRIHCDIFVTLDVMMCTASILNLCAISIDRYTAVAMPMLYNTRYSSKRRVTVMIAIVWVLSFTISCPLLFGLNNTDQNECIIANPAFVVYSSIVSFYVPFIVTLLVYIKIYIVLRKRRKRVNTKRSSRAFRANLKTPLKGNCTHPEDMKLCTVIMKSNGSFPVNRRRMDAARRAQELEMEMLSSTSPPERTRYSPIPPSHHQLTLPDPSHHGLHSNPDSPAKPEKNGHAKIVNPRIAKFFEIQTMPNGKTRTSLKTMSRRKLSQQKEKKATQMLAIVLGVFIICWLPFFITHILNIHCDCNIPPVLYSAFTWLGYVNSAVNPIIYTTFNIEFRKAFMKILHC

Ratio Ki [1]	Ki (D(2) dopamine receptor [2])	EC50 (D(2) dopamine receptor [3])	Ki (D(1A) dopamine receptor)	Compound
47	580 nM	820 nM	2200 nM	CN1CCc2cc(Sc3ccccc3)cc3c2[C@H]1Cc1ccc(O)c(O)c1-3
			141 nM	CN1CCc2cc(SC[C@@H](N)C(=O)O)cc3c2[C@H]1Cc1ccc(O)c(O)c1-3
0.3	415 nM	383 nM	140 nM	CN1CCc2c3c(cc4c2[C@H]1Cc1ccc(O)c(O)c1-4)SCCC3=O
38	10 nM	24 nM	380 nM	COC(=O)[C@@H](N)CSc1cc2c3c(c1)-c1c(ccc(O)c1O)C[C@H]3N(C)CC2
			4200 nM	CN1CCc2cc(SC[C@H](N)C(=O)O)cc3c2[C@H]1Cc1ccc(O)c(O)c1-3
135	9.6 nM	16 nM	1300 nM	CN1CCc2cc(SCCN)cc3c2[C@H]1Cc1ccc(O)c(O)c1-3

Compound	Ratio Ki [1]	Ki (D(2) dopamine receptor [2])	EC50 (D(2) dopamine receptor [3])	Ki (D(1A) dopamine receptor)
CN1CCc2cc(SCCC(=O)O)cc3c2[C@H]1Cc1ccc(O)c(O)c1-3	0.4	400 nM	148 nM	150 nM
